Columns and labels:
[1] = test system: U-87MG cells; assay: Cell death, PI staining and flow cytometry, U-87MG; type: cell-based, human; details: 5 h, serum-free medium, 37°C
Protocol: (§1) NSC-34 cells, a mouse motor neuron-like hybrid cell line, the A549 human lung adenocarcinoma and U-87MG human glioblastoma cell lines were incubated with the (1-26)N-Ter-Antp, D-(15-26)N-Ter-Antp, (1-20)N-Ter-Antp, (5-20)N-Ter-Antp, or (10-20)N-Ter-Antp peptides in the appropriate serum-free growth medium for 5 h at 37°C. Cells were harvested, and analyzed for cell death using propidium iodide (PI) staining and flow cytometry. For XTT, the CellTiter 96 AQueous one-solution cell proliferation assay was used to follow cell viability as described previously ([Leyton-Jaimes et al., 2016]).
(§2) NSC-34 (A), U-87MG (B), or A549 (C) cells were incubated with the indicated concentrations of (1-26)N-Ter-Antp (∙), D-(15-26) (19-26)N-Ter-Antp (▲), (1-20)N-Ter-Antp (∘), (5-20)N-Ter-Antp (□) or (10-20)N-Ter-Antp (◆) peptide for 5 h. Cell death was analyzed using PI staining and flow cytometry. […] Cell viability analysis was performed with the CellTiter 96 AQueous one-solution cell proliferation assay with ELISA at 490 nm. […] The significance of quantitative analysis of triplicates of different biological repeats (n = 3) was performed by Student’s t-test; ^∗∗P < 0.01. […] Twenty-four hours post-transfection, the cells were incubated for 5 h with (10-20)N-Ter-Antp peptide (20 μM) and then analyzed for apoptosis using acridine orange and ethidium bromide staining, as described previously ([McGahon et al., 1995]). Fluorescence microscopy images were analyzed and about 100 to 300 cells were counted for each treatment in representative microscopic fields. The significance of quantitative analysis of triplicates of different biological repeats (n = 3) was performed by one-way Anova; ^∗∗P < 0.01.

[2] = test system: A549 cells; assay: Cell death, PI staining and flow cytometry, A549; type: cell-based, human; details: 5 h, serum-free medium, 37°C
Protocol: as §1, §2

[3] = test system: NSC-34 cells; assay: Cell death, PI staining and flow cytometry, NSC-34; type: cell-based, mouse; details: 5 h, serum-free medium, 37°C
Protocol: as §1, §2

[4] = test system: NSC-34 cells transfected to express human mutant SOD1^G93A; assay: Rescue of mutant SOD1^G93A toxicity, cell viability (XTT / CellTiter 96 AQueous); type: cell-based, mouse; details: NSC-34 cells expressing SOD1^G93A, increasing peptide concentrations, 5 h, XTT assay; n = 3
Protocol: as §1, §2
Cell viability was quantified using the XTT assay and apoptosis using acridine orange and ethidium bromide staining. […] Importantly, this effect was observed using the three non-cell death-inducing VDAC1-derived N-terminal peptides, i.e., the (1-20)-N-Ter-Antp, (5-20)-N-Ter-Antp and (10-20)-N-Ter-Antp peptides.

[5] = target: T1, ΔN-VDAC1 (Mus musculus, UniProt Q60932); assay: Channel conductance of N-terminally truncated VDAC1 reconstituted into a planar lipid bilayer; type: biochemical, murine; details: after addition of 40 μg/ml SOD1, mean ± SEM
T1 construct: inferred from pET21a vector, XhoI cloning and Ni-NTA purification) (C); made in house; host or cells: Escherichia coli BL21(DE3)
Protocol: (§3) Protein expression was induced for 3 h using 1 mM isopropyl-β-D-thiogalactopyranoside (IPTG; Sigma). Proteins were purified on agarose-packed nickel-nitrilotriacetic acid resin (Ni-NTA; Qiagen) in the presence of 8 M urea. Refolding of the eluted protein was performed essentially as described previously ([Hiller et al., 2008]).
The reconstitution of recombinant WT or ΔN-VDAC1 into a planar lipid bilayer (PLB) prepared from soybean asolectin, and subsequent single channel current recordings and data analysis were carried out as described previously ([Gincel et al., 2001]). Currents were recorded under voltage-clamp conditions before and 5 min after the addition of 40 μg of recombinant hSOD1^wt, hSOD1^G93A, or hSOD1^G85R to the cis compartment using a Bilayer Clamp BC-535B amplifier (Warner Instrument, Hamden, CT, United States). Current amplitude histograms were prepared using AxoGraph X software. Relative conductance was determined as the average steady-state conductance at a given voltage normalized to the conductance at 10 mV, the maximal conductance. Relative conductance-voltage plots were prepared using Microsoft Excel software.
(C) Relative conductance of ΔN-VDAC1 as a function of voltage in a step from 60 to –60 mV before (▲) and after addition of SOD1^WT (Δ). Relative conductance (conductance/maximal conductance) was determined as the average steady-state conductance at a given voltage normalized to the conductance at 10 mV, taken as the maximal conductance. […] (E–H) Similar experiments as in (A–D), except that mutant SOD1^G93A was used. (I–L) Similar experiments as in (A–D), except that mutant SOD1^G85R was used.

[6] = target: T2, recombinant full length VDAC1 (Mus musculus, UniProt Q60932); assay: Channel conductance of full length VDAC1 reconstituted into a planar lipid bilayer; type: biochemical, murine; details: for Conductance, VDAC1 + SOD1: planar lipid bilayer, after addition of 40 μg/ml SOD1, mean ± SEM, SEM
T2 construct: inferred from pET21a vector, XhoI cloning and Ni-NTA purification) (C); made in house; host or cells: Escherichia coli BL21(DE3)
Protocol: as §3
Currents were recorded under voltage-clamp conditions before and 5 min after the addition of 40 μg of recombinant hSOD1^wt, hSOD1^G93A, or hSOD1^G85R to the cis compartment using a Bilayer Clamp BC-535B amplifier (Warner Instrument, Hamden, CT, United States). Current amplitude histograms were prepared using AxoGraph X software. […] Relative conductance-voltage plots were prepared using Microsoft Excel software.
Relative conductance (conductance/maximal conductance) was determined as the average steady-state conductance at a given voltage normalized to the conductance at 10 mV, considered the maximal conductance.

[7] = target: T3, SOD1^G93A (Homo sapiens, UniProt P00441, G94A); assay: Microscale thermophoresis (MST) binding to SOD1^G93A
T3 construct: made in house; host or cells: sf-9 cells
Protocol: (§4) Recombinant hSOD1^wt, hSOD1^G93A, and hSOD1^G85R were expressed in sf-9 cells and purified by hydrophobic interaction chromatography using phenyl-Sepharose 6 Fast Flow high sub (Amersham Biosciences), followed by ion exchange chromatography using a HiTrap Q-Sepharose anion exchange column (Amersham Biosciences), as described previously ([Hayward et al., 2002]).
(§5) Microscale thermophoresis analysis was performed using a NanoTemper Monolith NT.115 apparatus, as recently described ([Wienken et al., 2010]; [Zillner et al., 2012]). […] The results are presented as the bound fraction, calculated as follows: fraction bound 100 × (F − Fmin)/(Fmax − Fmin).
(§6) MST measures any variation in the thermal movement of a fluorescently labeled binding partner. The subsequent fluorescence depletion in a heated spot of the protein solution is measured as a function of increasing interacting partner concentration, with dissociation constants (KD) values being derived from the depletion curves ([Wienken et al., 2010]; Figure 1D).
(§7) Molecular weight standards are presented. […] After 20 min of incubation, 3–5 μl aliquots were loaded into MST-grade glass capillaries (NanoTemper Technologies) and thermophoresis was measured with a NanoTemper Monolith-NT115 system. The percentage change in normalized fluorescence (ΔF Norm %) is plotted as a function of protein concentration. […]

[8] = test system: SH-SY5Y cells expressing SOD1^G93A or SOD1^G37R; assay: Co-localization of misfolded SOD1 with VDAC1, immunostaining and confocal microscopy; type: cell-based; details: peptide 20 μM, 5 h, 24 h post-transfection; anti-VDAC1 and B8H10 antibodies
Protocol: For immunostaining, SH-SY5Y cells (4.5 × 10^4) were grown on sterilized coverslips in 24-well plates. 30 h post-transfection, cells were fixed using 4% paraformaldehyde (PFA; diluted in PBS) for 15 min, and then washed 3 times with PBS (5 min each wash). Cells were then permeabilized with 0.3% Triton X-100 in PBS for 5 min followed by washing with PBS. Cells were then blocked for 1 h with blocking buffer (1% BSA free fatty acids diluted in PBS). Anti-VDAC1 polyclonal antibody (ab15895) and mouse anti misfolded SOD1 (B8H10, Medimabs) were incubated at room temperature for 1–2 h in a buffer of 1% BSA free fatty acids and 0.3% Triton-X100 in PBS. Following incubation with primary antibodies, cells were washed with PBS and incubated with fluorescent conjugated secondary Alexa Flour 488 anti-rabbit and Alexa flour 647 anti-mouse antibodies. The coverslips were carefully dried and mounted on slides using Immumount (Immumount^TM, Thermo). After overnight drying, images were acquired on an Olympus IX81 confocal microscope.
Twenty-four hours post-transfection, the cells were incubated for 5 h with (10-20)N-Ter-Antp peptide (20 μM) and then analyzed for co-localization using a confocal microscope. […] Scale bar, 10 μm.

[9] = test system: SH-SY5Y cells expressing mutant SOD1^G37R; assay: Apoptosis, acridine orange/ethidium bromide staining, SOD1^G37R; type: cell-based; details: peptide 20 μM, 5 h, 24 h post-transfection, n = 3
Protocol: (§8) Apoptotic cell death was also analyzed using Acridine Orange (AcOr)/ethidium bromide (EtBr) staining ([McGahon et al., 1995]). Cells in 24-well plates were washed with 200 μl PBS and 10 μl of a solution containing […] in PBS was added. The cells were then visualized by fluorescence microscopy (ZOE fluorescence cell imager, Bio-Rad), images were recorded and cells at early and late apoptotic stages were counted.
as §2, with “The significance of quantitative analysis of triplicates of different biological repeats (n = 3) was performed by one-way Anova; ^∗∗P < 0.01.” left out

[10] = test system: SH-SY5Y cells expressing mutant SOD1^G93A; assay: Apoptosis, acridine orange/ethidium bromide staining, SOD1^G93A; type: cell-based; details: peptide 20 μM, 5 h, 24 h post-transfection, n = 3
Protocol: as §8
as §2, with “The significance of quantitative analysis of triplicates of different biological repeats (n = 3) was performed by one-way Anova; ^∗∗P < 0.01.” left out

[11] = target: T4, SOD1^G85R (Homo sapiens, UniProt P00441, G86R); assay: Microscale thermophoresis (MST) binding to SOD1^G85R; details: fluorescently labeled SOD1^G85R 230 nM, peptide 0.001–50 μM, 10 mM HEPES pH 7.4, 20 min, duplicate reads of triplicate experiments, read-out: EC50 (binding affinity, dissociation constant) of peptide to SOD1^G85R
T4 construct: made in house; host or cells: sf-9 cells
Protocol: as §4, §5, §6, §7

[12] = target: T5, SOD1^WT (Homo sapiens, UniProt P00441); assay: Microscale thermophoresis (MST) binding to SOD1^WT; details: read-out: EC50 (binding affinity, dissociation constant) of peptide to SOD1^WT
T5 construct: made in house; host or cells: sf-9 cells
Protocol: as §4, §5, §6, §7

T2 sequence (Q60932 14-296): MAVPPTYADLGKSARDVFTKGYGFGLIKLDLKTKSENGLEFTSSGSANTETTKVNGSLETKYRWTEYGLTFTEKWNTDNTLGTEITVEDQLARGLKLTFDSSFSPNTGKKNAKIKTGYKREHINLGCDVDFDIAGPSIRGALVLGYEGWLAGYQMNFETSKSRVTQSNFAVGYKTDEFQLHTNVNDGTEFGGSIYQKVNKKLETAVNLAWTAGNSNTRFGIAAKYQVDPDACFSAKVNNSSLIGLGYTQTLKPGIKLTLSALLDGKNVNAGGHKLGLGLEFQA
T1 sequence (Q60932 40-296, stated change not applied): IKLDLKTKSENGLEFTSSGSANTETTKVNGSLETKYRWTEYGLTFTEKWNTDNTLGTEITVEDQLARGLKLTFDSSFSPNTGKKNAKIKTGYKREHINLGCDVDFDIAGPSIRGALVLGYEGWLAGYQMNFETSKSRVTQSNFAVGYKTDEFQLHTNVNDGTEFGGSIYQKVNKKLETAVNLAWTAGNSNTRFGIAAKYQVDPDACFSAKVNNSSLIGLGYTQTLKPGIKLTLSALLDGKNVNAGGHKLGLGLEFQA
T3 sequence (P00441 whole entry G94A): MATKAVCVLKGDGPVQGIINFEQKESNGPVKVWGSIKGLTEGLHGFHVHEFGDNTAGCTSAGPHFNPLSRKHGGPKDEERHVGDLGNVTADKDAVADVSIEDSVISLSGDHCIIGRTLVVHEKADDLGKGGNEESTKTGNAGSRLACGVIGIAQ
T4 sequence (P00441 whole entry G86R): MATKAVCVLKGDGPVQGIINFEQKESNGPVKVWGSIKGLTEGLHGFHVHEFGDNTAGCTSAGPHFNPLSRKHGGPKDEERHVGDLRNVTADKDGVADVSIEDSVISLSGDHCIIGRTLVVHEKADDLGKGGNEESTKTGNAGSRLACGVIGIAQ
T5 sequence (P00441 whole entry): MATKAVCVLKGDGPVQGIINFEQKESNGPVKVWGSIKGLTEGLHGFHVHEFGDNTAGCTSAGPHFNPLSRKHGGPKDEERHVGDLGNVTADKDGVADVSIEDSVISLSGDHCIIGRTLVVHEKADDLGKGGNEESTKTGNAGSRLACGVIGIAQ

Conductance, ΔN-VDAC1 + SOD1 [5] | Compound | Cell death induction in U-87MG cells [1] | Cell death induction in A549 cells [2] | Cell death induction in NSC-34 cells [3] | other results
 | 5-PTYADLGKSARDVFTK-20- RQIKIWFQNRRMKWKK [(5-20)-N-Ter-Antp, like (1-20)-N-Ter-Antp but shortened by four amino acids at the N-terminus] | could not induce cell death | could not induce cell death | could not induce cell death | Effect on SOD1^G93A toxicity (cell viability) [4]: reduced the toxic effect of SOD1^G93A in a concentration-dependent manner
 | 1-MAVPPTYADLGKSARDVFTKG YGFGL-26- RQIKIWFQNRRMKWKK [(1-26)-N-Ter-Antp] | induced massive cell death | induced massive cell death | induced massive cell death | 
 | 14-RDVFTKGYGFGL-26- RQIKIWFQNRRMKWKK [D-(15-26)-N-Ter-Antp] | induced massive cell death | induced massive cell death | induced massive cell death | 
3.69 ± 0.13 nS | SOD1^WT: recombinant wild type human SOD1 expressed in sf-9 cells |  |  |  | effect on VDAC1 current ([6]; highest concentration 60 μg/ml, current-time traces at −10 or 10 mV): had no effect on the current; Conductance, VDAC1 + SOD1 [6]: 3.84 ± 0.1 nS
 | 159-ETAKSRVTQSNFAVGYKT-177 [LP3, reference compound] |  |  |  | Binding to mutant SOD1 compared with the (1-26)-N-terminal peptide ([7]; MST, fluorescently labeled SOD1^G93A 675 nM, LP3 6–40 μM, HEPES buffer): significantly lower binding to mutant SOD1
 | 10-LGKSARDVFTK-20- RQIKIWFQNRRMKWKK [(10-20)-N-Ter-Antp, like (1-20)-N-Ter-Antp but shortened by nine amino acids at the N-terminus] | could not induce cell death | could not induce cell death | could not induce cell death | Co-localization of misfolded SOD1 with VDAC1 [8]: co-localization was greatly eliminated; Effect on SOD1^G93A toxicity (cell viability) [4]: reduced the toxic effect of SOD1^G93A in a concentration-dependent manner; decrease of SOD1^G37R-mediated cell death [9]: 81%; decrease of SOD1^G93A-mediated cell death [10]: 68%
3.45 ± 0.01 nS | SOD1^G93A: recombinant human mutant SOD1 G93A expressed in sf-9 cells |  |  |  | 
3.92 ± 0.08 nS | SOD1^G85R: recombinant human mutant SOD1 G85R expressed in sf-9 cells |  |  |  | Conductance, VDAC1 + SOD1 [6]: 2.3 ± 0.35 nS
 | CSCC[C@H](N)C(=O)N[C@@H](C)C(=O)N[C@H](C(=O)N1CCC[C@H]1C(=O)N1CCC[C@H]1C(=O)N[C@H](C(=O)N[C@@H](Cc1ccc(O)cc1)C(=O)N[C@@H](C)C(=O)N[C@@H](CC(=O)O)C(=O)N[C@@H](CC(C)C)C(=O)NCC(=O)N[C@@H](CCCCN)C(=O)N[C@@H](CO)C(=O)N[C@@H](C)C(=O)N[C@@H](CCCNC(=N)N)C(=O)N[C@@H](CC(=O)O)C(=O)N[C@H](C(=O)N[C@@H](Cc1ccccc1)C(=O)N[C@H](C(=O)N[C@@H](CCCCN)C(=O)NCC(=O)N[C@@H](Cc1ccc(O)cc1)C(=O)NCC(=O)N[C@@H](Cc1ccccc1)C(=O)NCC(=O)N[C@@H](CC(C)C)C(=O)O)[C@@H](C)O)C(C)C)[C@@H](C)O)C(C)C [(1-26)N-Terminal] |  |  |  | EC50 [7]: 3.75 µM; EC50 [11]: 3.75 µM; EC50 [12]: > 200 µM

Source: article PMC6702328, “A VDAC1-Derived N-Terminal Peptide Inhibits Mutant SOD1-VDAC1 Interactions and Toxicity in the SOD1 Model of ALS” (Frontiers in Cellular Neuroscience, 2019)
